Test results published in BindingDB's records for doi:10.1016/j.bmcl.2012.11.092 (Vanderbilt University Medical Center, 2012).
pEC50: −log10 of the molar value.

Biological target: T1, Muscarinic acetylcholine receptor M1 (Homo sapiens, UniProt P11229)
T1 sequence (P11229 whole entry): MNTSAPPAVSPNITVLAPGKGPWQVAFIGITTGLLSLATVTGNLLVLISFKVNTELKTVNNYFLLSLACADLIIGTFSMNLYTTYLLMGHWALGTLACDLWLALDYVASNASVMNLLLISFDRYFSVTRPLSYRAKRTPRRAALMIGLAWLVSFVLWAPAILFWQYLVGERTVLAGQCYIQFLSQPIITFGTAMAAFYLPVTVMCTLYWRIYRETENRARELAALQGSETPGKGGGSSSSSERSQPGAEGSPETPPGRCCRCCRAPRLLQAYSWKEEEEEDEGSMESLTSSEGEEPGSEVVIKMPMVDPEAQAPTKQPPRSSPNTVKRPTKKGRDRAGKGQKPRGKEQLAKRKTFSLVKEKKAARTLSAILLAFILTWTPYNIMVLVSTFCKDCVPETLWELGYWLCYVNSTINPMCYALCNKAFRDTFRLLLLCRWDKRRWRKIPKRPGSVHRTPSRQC
Experiment: Positive allosteric modulator activity at human muscarinic M1 receptor by calcium mobilization assay

## Cn1cc(-c2ccc(CN3C(=O)C(O)(C(F)(F)F)c4ccccc43)c(F)c2)cn1 (stereo unspecified)
  pEC50: 5.48
